Results taken from the supplement of paper PMC10307832.

Key:
Test in all cases: relative viability (nuclei count vs DMSO), 5 days (fraction); higher = more cells survive
[1] = compound: Cn1cc(-c2cnn3c(N)c(Br)c([C@@H]4CCCNC4)nc23)cn1 + N=C(N)NC(=N)NCCc1ccccc1 [Phenformin] (partner 250 µM)
In short: (§1)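 A single step with final 0.05% Triton X-100, 1% formaldehyde and 1 ug/ml Hoechst fixed the cells and stained nuclei 5 days after treatment. Lung cancer cell lines in 1536-well plates had been treated by pin tool the day after seeding with one drug alone or a fixed anchor-drug dose plus five library-drug doses (not always all listed) in √10 steps, and nuclei were counted on 4× images. Relative viability is the ratio of nuclei in treated wells to nuclei in vehicle wells, taken as the median of duplicate plates.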

[2] = compound: Cn1cc(-c2cnn3c(N)c(Br)c([C@@H]4CCCNC4)nc23)cn1 + CS(=O)(=O)N1CCN(Cc2cc3nc(-c4cccc5[nH]ncc45)nc(N4CCOCC4)c3s2)CC1 [Pictilisib] (partner 1 µM)
In short: as §1

[3] = compound: Cn1cc(-c2cnn3c(N)c(Br)c([C@@H]4CCCNC4)nc23)cn1 + NC(=O)Nc1cc(-c2cccc(F)c2)sc1C(=O)N[C@H]1CCCNC1 [AZD7762] (partner 0.2 µM)
In short: as §1

[4] = compound: Cn1cc(-c2cnn3c(N)c(Br)c([C@@H]4CCCNC4)nc23)cn1 + Cc1nc(NC(=O)N2CCC[C@H]2C(N)=O)sc1-c1ccnc(C(C)(C)C(F)(F)F)c1 [Alpelisib] (partner 2 µM)
In short: as §1

Row | Cell Line | relative viability ([1]; first compound 0.05 µM) | relative viability ([1]; first compound 0.1581 µM) | relative viability ([1]; first compound 0.5 µM) | relative viability ([1]; first compound 1.581 µM) | relative viability ([1]; first compound 5 µM) | relative viability ([2]; first compound 0.05 µM) | relative viability ([2]; first compound 0.1581 µM) | relative viability ([2]; first compound 0.5 µM) | relative viability ([2]; first compound 1.581 µM) | relative viability ([2]; first compound 5 µM) | relative viability ([3]; first compound 0.05 µM) | relative viability ([3]; first compound 0.1581 µM) | relative viability ([3]; first compound 0.5 µM) | relative viability ([3]; first compound 1.581 µM) | relative viability ([3]; first compound 5 µM) | relative viability ([4]; first compound 0.05 µM) | relative viability ([4]; first compound 0.1581 µM) | relative viability ([4]; first compound 0.5 µM) | relative viability ([4]; first compound 1.581 µM) | relative viability ([4]; first compound 5 µM)
1 | NCI-H3122 | 0.374 | 0.62 | 0.383 | 0.366 | 0.383 | 0.635 | 0.647 | 0.604 | 0.526 | 0.606 | 0.981 | 1.07 | 1 | 0.883 | 1.16 | 0.79 | 0.856 | 0.806 | 0.717 | 0.869
2 | PC-3 [JPC-3] | 0.444 | 0.476 | 0.443 | 0.448 | 0.455 | 0.692 | 0.746 | 0.744 | 0.667 | 0.747 | 0.774 | 0.766 | – | 0.616 | 0.637 | 1.12 | 1.13 | 1.13 | 0.965 | 1.12
3 | PC-14 | 0.515 | 0.429 | 0.668 | 0.388 | 0.211 | 0.73 | 0.685 | 0.558 | 0.504 | 0.248 | 0.348 | 0.273 | 0.332 | 0.277 | 0.182 | 0.939 | 1.14 | 0.883 | 0.858 | 0.485
4 | RERF-LC-KJ | 0.41 | 0.46 | 0.41 | 0.408 | 0.412 | 0.593 | 0.53 | 0.384 | 0.359 | 0.346 | 1.1 | 0.864 | 1.1 | 0.872 | 0.749 | 0.849 | 0.846 | 0.892 | 0.708 | 0.717
